Results as given in US11510931B2, “Compositions and methods for treating ophthalmic conditions” (MEDICON PHARMACEUTICALS, INC., priority 2016, dated 2022).

Columns and labels:
[1] = target: T1, MMP-1 (collagenase I) (Homo sapiens, UniProt P03956); assay: In vitro collagenase activity assay with purified MMP-1; assay type: biochemical; settings: purified MMP-1 (collagenase I)
T1 sequence (P03956 100-469): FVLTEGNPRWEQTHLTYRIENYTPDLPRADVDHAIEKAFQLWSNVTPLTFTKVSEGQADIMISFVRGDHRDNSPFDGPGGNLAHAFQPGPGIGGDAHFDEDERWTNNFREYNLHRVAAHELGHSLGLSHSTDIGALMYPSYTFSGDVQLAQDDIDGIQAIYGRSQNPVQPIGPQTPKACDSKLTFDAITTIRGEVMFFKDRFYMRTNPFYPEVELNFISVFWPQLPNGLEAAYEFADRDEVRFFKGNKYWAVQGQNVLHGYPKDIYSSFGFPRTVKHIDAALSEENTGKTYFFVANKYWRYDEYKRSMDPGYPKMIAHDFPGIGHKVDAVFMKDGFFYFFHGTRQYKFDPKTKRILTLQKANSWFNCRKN
Experimental: In an in vitro assay with purified MMP-1 (collagenase I) as […] it was shown that PS inhibited collagenase activity with an IC50 of <100 nM. In cultured human conjunctiva cells, PS suppressed MMP-1 by 75%-86%. In the lacrimal glands of rabbits with DED treated with PS eye drops, PS suppressed MMP-9 levels by 27% compared to vehicle treated rabbits (2.20±0.24 vs. 1.66±0.20 ng/mg protein; p<0.05; mean±SEM).

[2] = system: JNK and Erk1/2; assay: MAPK activation by phosphorylation in human conjunctival cells (immunoblot); assay type: cell-based; settings: 3.5 h, FIG. 6B
Experimental: FIGS. 6A and 6B illustrate that PS suppresses the activation of NF-κB and MAPKs. In FIG. 6A, NF-κB activation was determined by EMSA in cultured human conjunctival cells stimulated with TNFα (top) and in the ILG of rabbits with Con A-induced DED and treated for one week with either vehicle or PS (bottom). In FIG. 6B, immunoblots detecting the activation of MAPKs by phosphorylation in cultured human conjunctival cells treated with PS at the indicated concentrations for 3.5 h. Loading control: β-actin.
Our conjunctiva cells express only the JNK and Erk1/2 pathways.

[3] = system: cornea of New Zealand white rabbits; assay: Corneal touch threshold (CTT), Cochet-Bonnet aesthesiometer; assay type: in vivo, rabbit
Experimental: The analgesic effect of PS was determined by measuring the corneal touch threshold (CTT) using the Luneau Cochet-Bonnet Aeshesiometer (Western Ophthalmics, Lynwood, Wash.), an adjustable nylon monofilament with a defined diameter, which is applied in different lengths to the center of the cornea. This device is generally described in Lima L, Lange R R, Turner-Giannico A, Montiani-Ferreira F. Evaluation of standardized endodontic paper point tear test in New Zealand white rabbits and comparison between corneal sensitivity followed tear tests. Vet Ophthalmol. 2015; 18 Suppl 1:119-24.
A stimulus produced by the filament that reaches the CTT induces a corneal reflex, consisting of prompt eyelid closure. The CTT is quantified as centimeter length of the filament necessary to cause the blink reflex.
The CTT is determined before (baseline) and at various time points after the application of the test compound (PS). PS was formulated either in β-cyclodextrin (42 or 8 mg/ml) or in a nanocarrier (19 mg/ml). The test drug was formulated in a nanocarrier by the emulsion and evaporation method (Vauthier C, Bouchemal K. Methods for the Preparation and Manufacture of Polymeric Nanoparticles. Pharmaceutical Research; 2009; 26:1025-1058). The formulated stable drug suspension consisted of polylactic acid and polyethylene glycol (PLLA(10k)-PEG(2k)); sodium cholate; and PS. The vehicle control was either β-cyclodextrin or the nanocarrier without PS. Commercially available lidocaine 1% was used as a positive control.
To each eye of adult New Zealand white rabbits was applied […] drops of PS or vehicle or lidocaine, with 5 minutes between each drop. The time of the last drop was taken as the 0 time.
The analgesic effect of PS was further examined on the surface of the eye by determining the corneal touch threshold (CTT) using the Luneau Cochet-Bonnet Aesthesiometer (Western Ophthalmics, Lynwood, Wash.) an adjustable nylon monofilament with a defined diameter, which is applied in different lengths to the center of the cornea.

CCOP(=O)(OCC)OCCCCOC(=O)CC1=C(C)/C(=C/c2ccc([S+](C)[O-])cc2)c2ccc(F)cc21 (stereo not drawn) [PS, phosphosulindac] was tested, and the IC50 [1] was under 100 nM, the “activation by phosphorylation of JNK and Erk1/2” value [2] was “profoundly suppressed” and the “Corneal touch threshold (CTT)” value ([3]; PS 8 mg/ml in β-cyclodextrin, 1 min) was 5.3 ± 0.7 centimeter. For the same compound, the “Corneal touch threshold (CTT)” value ([3]; PS 8 mg/ml in β-cyclodextrin, 5 min) was 5.4 ± 0.8 centimeter, the “Corneal touch threshold (CTT)” value ([3]; PS 8 mg/ml in β-cyclodextrin, 10 min) was 5.6 ± 0.5 centimeter and the “Corneal touch threshold (CTT)” value ([3]; PS 8 mg/ml in β-cyclodextrin, 20 min) was 5.6 ± 0.5 centimeter. For the same compound, the “Corneal touch threshold (CTT)” value ([3]; PS 8 mg/ml in β-cyclodextrin, 30 min) was 5.9 ± 0.3 centimeter, the “Corneal touch threshold (CTT)” value ([3]; PS 8 mg/ml in β-cyclodextrin, 45 min) was 5.9 ± 0.3 centimeter and the “Corneal touch threshold (CTT)” value ([3]; PS 8 mg/ml in β-cyclodextrin, 60 min) was 5.9 ± 0.3 centimeter. The “Corneal touch threshold (CTT)” value ([3]; PS 8 mg/ml in β-cyclodextrin, baseline) was 5.9 ± 0.3 centimeter, the “Corneal touch threshold (CTT)” value ([3]; PS 19 mg/ml in nanocarrier, 1 min) was 5.4 ± 0.6 centimeter and the “Corneal touch threshold (CTT)” value ([3]; PS 19 mg/ml in nanocarrier, 5 min) was 5.1 ± 0.8 centimeter. For the same compound, the “Corneal touch threshold (CTT)” value ([3]; PS 19 mg/ml in nanocarrier, 10 min) was 5.3 ± 0.8 centimeter, the “Corneal touch threshold (CTT)” value ([3]; PS 19 mg/ml in nanocarrier, 20 min) was 5.5 ± 0.7 centimeter and the “Corneal touch threshold (CTT)” value ([3]; PS 19 mg/ml in nanocarrier, 30 min) was 5.9 ± 0.2 centimeter. For the same compound, the “Corneal touch threshold (CTT)” value ([3]; PS 19 mg/ml in nanocarrier, 45 min) was 5.9 ± 0.4 centimeter, the “Corneal touch threshold (CTT)” value ([3]; PS 19 mg/ml in nanocarrier, 60 min) was 5.9 ± 0.2 centimeter and the “Corneal touch threshold (CTT)” value ([3]; PS 19 mg/ml in nanocarrier, baseline) was 5.9 ± 0.3 centimeter. The “Corneal touch threshold (CTT)” value ([3]; PS 42 mg/ml in β-cyclodextrin, 1 min) was 2.7 ± 1.0 centimeter, the “Corneal touch threshold (CTT)” value ([3]; PS 42 mg/ml in β-cyclodextrin, 5 min) was 3.1 ± 1.2 centimeter and the “Corneal touch threshold (CTT)” value ([3]; PS 42 mg/ml in β-cyclodextrin, 10 min) was 3.7 ± 1.3 centimeter. The “Corneal touch threshold (CTT)” value ([3]; PS 42 mg/ml in β-cyclodextrin, 20 min) was 4.1 ± 1.4 centimeter, the “Corneal touch threshold (CTT)” value ([3]; PS 42 mg/ml in β-cyclodextrin, 30 min) was 5.1 ± 1.0 centimeter and the “Corneal touch threshold (CTT)” value ([3]; PS 42 mg/ml in β-cyclodextrin, 45 min) was 5.6 ± 0.7 centimeter. For the same compound, the “Corneal touch threshold (CTT)” value ([3]; PS 42 mg/ml in β-cyclodextrin, 60 min) was 5.9 ± 0.2 centimeter, the “Corneal touch threshold (CTT)” value ([3]; PS 42 mg/ml in β-cyclodextrin, baseline) was 5.9 ± 0.2 centimeter and the “analgesia (CTT)” value ([3]; single eye drop, naïve rabbits, FIG. 10) was “essentially instantaneous and significant analgesia”.
